How the values were obtained:
clinical = settings: human
Bile salt export pump [1] = molecular target: T1, Bile salt export pump (Homo sapiens, UniProt O95342); assay type: ADME
Liver = assay type: ADME, mitochondria, Rattus norvegicus, Sprague-Dawley
Bile salt export pump [2] = molecular target: T1, Bile salt export pump; experiment: Inhibition of recombinant human BSEP expressed in baculovirus infected sf9 cell plasma membrane vesicles assessed as reduction in ATP-dependent [3H]-taurocholate uptake in to vesicles preincubated for 10 mins followed by ATP addition measured after 10 to 15 mins by TopCount method; assay type: ADME
Bile salt export pump [3] = molecular target: T1, Bile salt export pump; experiment: Inhibition of BSEP (unknown origin); assay type: ADME
Bile salt export pump [4] = molecular target: T1, Bile salt export pump; experiment: Inhibition of recombinant human BSEP expressed in baculovirus infected sf21 cell plasma membrane vesicles assessed as reduction in ATP-dependent [3H]-taurocholate uptake in to vesicles after 5 mins by microbeta filtration method; assay type: ADME
[5] = Induction of mitochondrial dysfunction in liver mitochondria (unknown origin) assessed as inhibition of mitochondrial respiration

T1 sequence (O95342 whole entry): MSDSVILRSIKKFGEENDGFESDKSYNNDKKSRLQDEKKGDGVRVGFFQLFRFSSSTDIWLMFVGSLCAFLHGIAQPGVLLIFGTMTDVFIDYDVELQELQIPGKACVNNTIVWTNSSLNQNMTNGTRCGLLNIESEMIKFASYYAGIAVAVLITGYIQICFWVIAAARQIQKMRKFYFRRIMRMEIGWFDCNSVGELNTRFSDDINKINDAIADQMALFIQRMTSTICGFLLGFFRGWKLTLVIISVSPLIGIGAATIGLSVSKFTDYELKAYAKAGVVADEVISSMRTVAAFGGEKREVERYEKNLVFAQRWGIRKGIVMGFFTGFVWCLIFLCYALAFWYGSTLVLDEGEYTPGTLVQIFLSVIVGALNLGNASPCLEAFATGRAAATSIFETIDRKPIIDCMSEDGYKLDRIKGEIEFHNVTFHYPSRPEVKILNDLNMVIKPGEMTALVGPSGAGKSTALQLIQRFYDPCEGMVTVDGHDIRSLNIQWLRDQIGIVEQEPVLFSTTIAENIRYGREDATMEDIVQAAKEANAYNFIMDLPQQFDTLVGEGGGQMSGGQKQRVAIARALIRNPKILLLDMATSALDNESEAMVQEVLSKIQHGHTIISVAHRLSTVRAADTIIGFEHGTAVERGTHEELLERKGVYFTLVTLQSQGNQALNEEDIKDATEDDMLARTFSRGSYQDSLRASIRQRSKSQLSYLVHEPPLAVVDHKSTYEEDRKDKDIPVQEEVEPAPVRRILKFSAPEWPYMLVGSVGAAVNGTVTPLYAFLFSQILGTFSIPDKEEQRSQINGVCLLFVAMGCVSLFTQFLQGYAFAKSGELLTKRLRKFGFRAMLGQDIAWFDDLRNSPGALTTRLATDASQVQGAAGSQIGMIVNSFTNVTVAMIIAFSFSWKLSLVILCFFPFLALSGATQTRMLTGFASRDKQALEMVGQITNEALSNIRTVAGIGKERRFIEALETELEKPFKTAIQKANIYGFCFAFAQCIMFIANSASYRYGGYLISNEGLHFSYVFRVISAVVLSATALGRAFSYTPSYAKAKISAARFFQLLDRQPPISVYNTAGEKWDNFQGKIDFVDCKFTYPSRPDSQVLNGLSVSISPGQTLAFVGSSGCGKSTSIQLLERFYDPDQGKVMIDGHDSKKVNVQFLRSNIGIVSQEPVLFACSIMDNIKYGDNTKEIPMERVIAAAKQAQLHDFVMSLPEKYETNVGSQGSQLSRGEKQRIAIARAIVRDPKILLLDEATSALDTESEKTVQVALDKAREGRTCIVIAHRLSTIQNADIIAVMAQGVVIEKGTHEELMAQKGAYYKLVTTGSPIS

SMILES	Cmax (clinical) [nM]	IC50 (Bile salt export pump [1]; read-out: IC50) [µM]	IC50 (Liver)	other results
O=C1CC2(CCCC2)CC(=O)N1CCCCN1CCN(c2ncccn2)CC1 [BUSPIRONE]	5	> 100	Non-Toxic	–
CC(C)OC(=O)C(C)(C)Oc1ccc(C(=O)c2ccc(Cl)cc2)cc1 [FENOFIBRATE]	12100	41	–	–
CN(C)C(=O)C(CCN1CCC(O)(c2ccc(Cl)cc2)CC1)(c1ccccc1)c1ccccc1 [LOPERAMIDE]	8	67	Non-Toxic	–
C[C@H]1C[C@H]2[C@@H]3CCC4=CC(=O)C=C[C@]4(C)[C@@]3(Cl)[C@@H](O)C[C@]2(C)[C@@]1(O)C(=O)CO [BECLOMETHASONE]	0.2	10.3	Non-Toxic	–
CCOC(=O)c1ncn2c1CN(C)C(=O)c1cc(F)ccc1-2 [FLUMAZENIL]	1120	> 100	Non-Toxic	–
Clc1ccc(COC(Cn2ccnc2)c2ccc(Cl)cc2Cl)cc1 (configuration not stated) [ECONAZOLE]	1	–	–	IC50 (Bile salt export pump [1]): 13.4 µM
CC(CCc1ccc(O)cc1)NCCc1ccc(O)c(O)c1 (configuration not stated) [DOBUTAMINE]	1340	> 100	Non-Toxic	–
C[C@H](CCC(=O)O)[C@H]1CC[C@H]2[C@@H]3[C@H](O)C[C@@H]4C[C@H](O)CC[C@]4(C)[C@H]3CC[C@]12C [CHENODIOL]	8000	10.6	Non-Toxic	–
CC[C@H]1OC(=O)[C@H](C)C(=O)[C@H](C)[C@@H](O[C@@H]2O[C@H](C)C[C@H](N(C)C)[C@H]2O)[C@](C)(OC)C[C@@H](C)C(=O)[C@H](C)[C@H]2N(CCCCn3cnc(-c4cccnc4)c3)C(=O)O[C@]12C [TELITHROMYCIN]	2770	30	Non-Toxic	–
CN(CCOc1ccc(CC2SC(=O)NC2=O)cc1)c1ccccn1 (configuration not stated) [ROSIGLITAZONE]	1040	–	–	IC50 (Bile salt export pump [2]): 3.75 µM
CO[C@H]1/C=C/O[C@@]2(C)Oc3c(C)c(O)c4c(O)c(c(/C=N/N5CCN(C)CC5)c(O)c4c3C2=O)NC(=O)/C(C)=C\C=C\[C@H](C)[C@H](O)[C@@H](C)[C@@H](O)[C@@H](C)[C@H](OC(C)=O)[C@@H]1C [RIFAMPIN]	8500	18.7	Non-Toxic	–
CO[C@H]1/C=C/O[C@@]2(C)Oc3c(C)c(O)c4c(O)c(cc(O)c4c3C2=O)NC(=O)/C(C)=C\C=C\[C@H](C)[C@H](O)[C@@H](C)[C@@H](O)[C@@H](C)[C@H](OC(C)=O)[C@@H]1C [RIFAMYCIN]	2780	9.5	Non-Toxic	–
Cc1cccc(Nc2ccccc2C(=O)O)c1C [MEFENAMIC ACID]	26900	57	–	–
CC(O)(CS(=O)(=O)c1ccc(F)cc1)C(=O)Nc1ccc(C#N)c(C(F)(F)F)c1 (configuration not stated) [BICALUTAMIDE]	1970	29.3	–	–
O=c1n(CCCN2CCN(c3cccc(Cl)c3)CC2)nc2ccccn12 [TRAZODONE]	5060	90	Non-Toxic	–
CCOC(=O)[C@@]1(CCCCCCOc2ccc(Cl)cc2)CO1 [ETOMOXIR]	–	–	–	IC50 (Bile salt export pump [3]): 11.8 µM
C#C[C@]1(OC(C)=O)CC[C@H]2[C@@H]3CCC4=C[C@@H](OC(C)=O)CC[C@@H]4[C@H]3CC[C@@]21C [ETHYNODIOL DIACETATE]	29	62	–	–
C[N+](C)(C)CC(=O)O [BETAINE]	599000	–	Non-Toxic	IC50 (Bile salt export pump [4]): > 1000 µM
CC(C)C(=O)Nc1ccc([N+](=O)[O-])c(C(F)(F)F)c1 [FLUTAMIDE]	362	68	–	–
CCC1=C(C)CN(C(=O)NCCc2ccc(S(=O)(=O)NC(=O)N[C@H]3CC[C@H](C)CC3)cc2)C1=O [GLIMEPIRIDE]	1120	34	Non-Toxic	–
CCc1oc2ccccc2c1C(=O)c1cc(Br)c(O)c(Br)c1 [BENZBROMARONE]	4340	15.9	–	–
CCc1nn(CCCN2CCN(c3cccc(Cl)c3)CC2)c(=O)n1CCOc1ccccc1 [NEFAZODONE]	6800	7	–	–
O=C1C(CC[S+]([O-])c2ccccc2)C(=O)N(c2ccccc2)N1c1ccccc1 (configuration not stated) [SULFINPYRAZONE]	44200	11	Non-Toxic	–
COCC(=O)NC/C=C/c1ccc2ncnc(Nc3ccc(Oc4ccc(C)nc4)c(C)c3)c2c1 [CP-724714]	–	–	–	IC50 [5]: 45 nmol/mg
COC(=O)C1=C(C)NC(C)=C(C(=O)OC)C1c1ccccc1[N+](=O)[O-] [NIFEDIPINE]	–	69	Non-Toxic	–
CN[C@@H]1[C@H](O[C@H]2[C@H](O[C@H]3[C@H](O)[C@@H](O)[C@H](N=C(N)N)[C@@H](O)[C@@H]3N=C(N)N)O[C@@H](C)[C@]2(O)C=O)O[C@@H](CO)[C@H](O)[C@H]1O [STREPTOMYCIN]	64500	–	Non-Toxic	IC50 (Bile salt export pump [4]): > 1000 µM
C[C@@H]1C[C@H]2[C@@H]3CCC4=CC(=O)C=C[C@]4(C)[C@@]3(Cl)[C@@H](O)C[C@]2(C)[C@@]1(O)C(=O)CCl [MOMETASONE]	0.3	9.3	Non-Toxic	–
